Measured values as given in patent publication US12618112B2, “Epigenetic moderators of naltrexone efficacy in reducing heavy drinking in individuals diagnosed with alcohol use disorder” (MUSC Foundation for Research Development, priority 2021, dated 2026).

Tests used:
[1] = test system: individuals with Alcohol Use Disorder; settings: cited from earlier work
[2] = test system: treatment-seeking AUD patients; assay: 16-week randomized, placebo-controlled naltrexone trial; percent heavy drinking days (PHDD) by promoter/VNTR methylation subgroup; type: in vivo, human; settings: for effect of naltrexone, relative to placebo, on PHDD: 16-week trial
Excerpt: Overview. Detailed methods for the parent RCT, including a CONSORT diagram, are described in Anton et al, 2020 and Schacht et al, 2017. The Medical University of South Carolina Institutional Review Board approved all procedures, and all participants provided informed consent before participation. The study consisted of an initial assessment session, a baseline visit, and 9 follow-up visits over the course of a 16-week treatment period. Briefly, participants seeking AUD treatment were recruited from the community with media advertisements, assessed for inclusion/exclusion criteria, and genotyped for rs1799971. One of the aims of the parent RCT was to test the effect of rs1799971 genotype on naltrexone efficacy, so participants who carried the minor (G) allele were over-selected, such that these individuals ultimately comprised ˜50% of the 146 participants randomized to medication.
Participants. Participants were required to be ages 18-70; report heavy drinking (at least five/four standard drinks per day for men/women) on at least 50% of the days in the 90 days before assessment; and meet DSM-IV (Diagnostic and Statistical Manual of Mental Disorders, revised 4th edition) diagnostic criteria for Alcohol Dependence, as assessed by the Structured Clinical Interview for DSM-IV (First et al, 2002). Participants were also required to self-identify as Caucasian or Asian, secondary to low rs1799971 G-allele frequency among individuals of African descent; we previously reported that analysis of population allele frequencies for 50 SNPs included on the methylation assay used here indicated a high degree of correspondence between self-reported and SNP-identified ancestry. […] Exclusion criteria were: current psychotropic medication use other than antidepressants (for which a stable dose for at least one month was required); current DSM-IV Axis I diagnosis or suicidal/homicidal ideation; history of significant medical illness; liver enzyme (ALT or AST) levels>three times normal; and past-month naltrexone, disulfiram, or acamprosate use. Female participants could not be pregnant or nursing. The Table below lists demographic characteristics for the sample. Medication, randomization, and assessment. Participants were required to maintain abstinence for at least four days before medication randomization, and were then urn randomized (Stout et al, 1994) to receive naltrexone (25 mg for two days, then 50 mg thereafter) or placebo for 16 weeks. Randomization was stratified by rs1799971 genotype, with sex, smoking status (non-smoker vs. smoker, defined as ≥10 cigarettes per day), cocaine use, antidepressant use, and AUD family history balanced across medication groups. […] Participants and investigators were blind to genotype and medication assignment. After randomization, participants returned at weeks 1, 2, 3, 4, 6, 8, 10, 12, and 16 for medical management sessions, during which daily drinking since the last visit was assessed with the calendar-based Timeline Follow-back interview (Sobell and Sobell, 1992). Participants who dropped out after randomization were compensated to return at week 16 to provide missing drinking data. Forty participants ultimately dropped out, at similar rates across medication groups, but full drinking data were available on 89% of participants.
Methylation assay. Genomic DNA was quantitated using a Qubit Fluorometer (Thermo Fisher Scientific, Waltham, MA). An Infinium MethylationEPIC BeadChip (Illumina, San Diego, CA), which assays methylation at 866,895 cytosine residues, 99.7% of which are CpG sites, was used to generate a comprehensive genome-wide profile of DNA methylation. For each subject, 500 ng genomic DNA was bisulfate converted, denatured, and amplified, fragmented, resuspended, and hybridized to the BeadChips (eight samples per chip). […]

[3] = month 3, high SLC6A3 promoter and low OPRM1 promoter methylation

O=C1CC[C@@]2(O)[C@H]3Cc4ccc(O)c5c4[C@@]2(CCN3CC2CC2)[C@H]1O5 [naltrexone]
overall effect of naltrexone on heavy drinking ([1]; across all AUD individuals (Maisel et al, 2013)): small | effect on heavy drinking ([1]; individuals with AUD (Jonas et al., 2014a)): reduces heavy drinking | effect size (Cohen's d) for PHDD, naltrexone relative to placebo ([2]; across all study months, lower COMT promoter and lower OPRM1 promoter methylation): 0.85 | mean difference between naltrexone and placebo in PHDD ([2]; across all study months, lower COMT promoter and lower OPRM1 promoter methylation (median split)): 19.7 % HDD | effect size (Cohen's d) for PHDD, naltrexone relative to placebo ([2]; across all study months, lower SLC6A3 VNTR and lower OPRM1 promoter methylation): 1.25 | mean difference between naltrexone and placebo in PHDD ([2]; across all study months, lower SLC6A3 VNTR and lower OPRM1 promoter methylation (median split)): 28.5 % HDD | simple effect of medication on PHDD ([2]; any time point, any other combination of SLC6A3 and OPRM1 promoter methylation (except high SLC6A3/low OPRM1)): not significant | heavy drinking days ([2]; lower methylation of OPRM1 and SLC6A3 or COMT promoters, relative to placebo and to higher methylation): significantly fewer heavy drinking days | effect size (Cohen's d) for PHDD, naltrexone relative to placebo ([2]; month 2, lower SLC6A3 promoter and lower OPRM1 promoter methylation): 0.61 | mean difference between naltrexone and placebo in PHDD ([2]; month 2, lower SLC6A3 promoter and lower OPRM1 promoter methylation (median split), naltrexone 50 mg): 16.2 % HDD | effect size (Cohen's d) for PHDD, naltrexone relative to placebo [2, 3]: 0.98 | mean difference between naltrexone and placebo in PHDD [2, 3]: 25.7 % HDD | effect size (Cohen's d) for PHDD, naltrexone relative to placebo ([2]; month 3, lower SLC6A3 promoter and lower OPRM1 promoter methylation): 0.62 | mean difference between naltrexone and placebo in PHDD ([2]; month 3, lower SLC6A3 promoter and lower OPRM1 promoter methylation (median split)): 16.5 % HDD | effect of naltrexone, relative to placebo, on PHDD ([2]; participants with lower COMT promoter and OPRM1 promoter methylation): reduced PHDD more | effect of naltrexone, relative to placebo, on PHDD ([2]; participants with lower SLC6A3 VNTR and OPRM1 promoter methylation): reduced PHDD more | effect of naltrexone, relative to placebo, on PHDD ([2]; participants with lower SLC6A3 promoter and OPRM1 promoter methylation): reduced PHDD more | effect sizes for naltrexone, relative to placebo, on heavy drinking ([2]; subgroups in which it was most effective): 0.53-1.04
